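Where inhibition never reached the appropriate level, the endpoint shown equals the highest concentration tested. Otherwise, values were interpolated linearly from a five-concentration, 48-hour dose response in 96-well plates. TGI marks complete inhibition of growth.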
Assays:
Assay in all cases: NCI-60 cell line screen, 48 h
ACHN renal = test system: ACHN renal
HCT-15 colon = test system: HCT-15 colon
HOP-62 NSCLC = test system: HOP-62 NSCLC
LOX IMVI melanoma = test system: LOX IMVI melanoma
MDA-N = test system: MDA-N
NCI-H226 lung = test system: NCI-H226 lung
NCI-H522 lung = test system: NCI-H522 lung
OVCAR-5 ovarian = test system: OVCAR-5 ovarian
PC-3 prostate = test system: PC-3 prostate
SF-295 CNS = test system: SF-295 CNS

Structure (SMILES) | TGI (ACHN renal) [µM] | TGI (HCT-15 colon) [µM] | TGI (HOP-62 NSCLC) [µM] | TGI (LOX IMVI melanoma) [µM] | TGI (MDA-N) [µM] | TGI (NCI-H226 lung) [µM] | TGI (NCI-H522 lung) [µM] | TGI (OVCAR-5 ovarian) [µM] | TGI (PC-3 prostate) [µM] | TGI (SF-295 CNS) [µM]
COC(OC)(c1ccccc1)C(I)I | 31.9 | 18.5 | > 58.3 | 32.4 | 22.6 | 42.4 | 6.98 | 33.1 | 30.7 | > 52.7
Cc1ccc([N+](=O)[O-])cc1S(=O)(=O)Nc1ccc(C2=NNC(c3cccs3)C2)cc1 (centres undefined) | 82.9 | > 100 | 60.2 | > 100 | > 100 | > 100 | > 100 | > 100 | > 100 | 63.9
NC12CC3CC4C1CC1CC2C(C3)C4(N)C1 | > 100 | > 100 | > 100 | > 100 | > 100 | > 100 | > 100 | > 100 | > 100 | > 100
COc1cc(C2SCC(=O)N2c2ccc(Cl)cc2)cc(I)c1O (centres undefined) | > 100 | > 100 | > 100 | > 100 | > 100 | > 100 | > 100 | > 100 | > 100 | > 100
Cc1ccc(/C=N/Nc2nncc3ccccc23)s1 | > 100 | > 100 | > 77.4 | > 100 | > 100 | > 100 | > 100 | > 100 | > 100 | 98.2
Cc1ccc(/C=N/NC2=NCCN2)s1 | > 100 | > 100 | > 100 | > 100 | > 100 | > 100 | > 100 | > 100 | > 100 | > 100
O=CC1OC(=O)c2cc(O)c(O)c(O)c2-c2c(cc(O)c(O)c2O)C(=O)OC1C(O)C(O)CO (centres undefined) | > 100 | > 100 | > 100 | 31.4 | 36.2 | > 100 | > 100 | > 100 | 31.9 | 67.9
CC12CC3(O)OC(O1)C1(COC(=O)c4ccccc4)C3CC21OC1OC(CO)C(O)C(O)C1O (centres undefined) | > 100 | > 100 | > 100 | > 100 | > 100 | > 100 | > 100 | > 100 | > 100 | > 100
COc1cc(C(=O)Nc2c3ccccc3nc3ccccc23)cc(OC)c1OC | > 100 | > 100 | > 80.1 | > 100 | > 100 | > 100 | > 100 | > 100 | > 100 | > 100
CCOC(=O)C(C)(C)/C=C\C(Cl)=C(Cl)Cl | > 100 |  | > 100 | > 100 | > 100 | > 100 | > 100 | > 100 | > 100 | > 100
COC(=O)[C@H](Cc1ccccc1)NP(=O)(O)OCC1OC(n2cc(C)c(=O)[nH]c2=O)CC1N=[N+]=[N-] (some centres undefined) | > 100 | > 100 | > 100 | > 100 | > 100 | > 100 | > 100 | > 100 | > 100 | > 100
Cc1ccc(O)c(-c2csc(NCN3CCN(CNc4nc(-c5cc(C)ccc5O)cs4)CC3)n2)c1 | > 100 | > 100 | > 100 | > 100 | > 100 | > 100 | > 100 | > 100 | > 100 | > 100
COc1ccc(CCCC(=O)O)c(C)c1 | > 100 | > 100 | 75 | > 100 | > 100 | 91.1 | > 100 | > 100 | > 100 | > 100
COc1ccc(C(C#N)NCCCCCCNC(C#N)c2ccc(OC)cc2)cc1 (centres undefined) | > 100 | > 100 | > 100 | > 100 | > 100 | > 100 | > 100 | > 100 | > 100 | > 100
CC(NC(=O)C(N)CC(=O)O)NC(=O)N1CCOCC1 (centres undefined) | > 100 | > 100 | > 100 | > 100 | > 100 | > 100 | > 100 | > 100 | > 100 | > 100
COC(=O)c1ccc(CCc2cc(O)c(Br)cc2O)cc1 | 25.9 | 26.1 | 32.2 | 27.2 | 30 | 55.1 | 12.3 | 33.8 | 20.6 | 28
CC(=O)N1N=C(N)CC1=O | > 100 | > 100 | > 100 | > 100 | > 100 | > 100 | > 100 | > 100 | > 100 | > 100
CCn1c(-c2ccc(C)cc2)cs/c1=N\C(P(=O)(O)O)P(=O)(O)O | > 100 | > 100 | > 100 | > 100 | > 100 | > 100 | > 100 | > 100 | > 100 | > 100

Source: PubChem BioAssay (NCI)
